Assay in all cases: NCI tumour cell line growth inhibition, 48 h
Experiment [1] has as its system A549 NSCLC.
Experiment [2] concerns CAKI-1 renal.
Experiment [3] has as its system HCC-2998 colon.
The subject of experiment [4] is HOP-62 NSCLC.
Experiment [5] relates to HT29 colon.
Experiment [6] relates to NCI-H522 lung.
In experiment [7] the test system is OVCAR-5 ovarian.
Experiment [8] concerns SK-MEL-28 melanoma.
In experiment [9] the test system is SK-MEL-5 melanoma.
For experiment [10], the system named is SNB-19 CNS.
In experiment [11] the test system is SNB-75 CNS.
Experiment [12] concerns SW-620 colon.
Experiment [13] has as its system TK-10 renal.
Experiment [14] deals with UACC-257 melanoma.
For experiment [15], the system named is COLO 205 colon.
For experiment [16], the system named is SK-OV-3 ovarian.
The subject of experiment [17] is SF-539 CNS.

The structures appear in SMILES notation.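 Following 48 hours of exposure in 96-well plates, responses at five concentrations were used to interpolate endpoints linearly. The concentration for full growth arrest is given as TGI.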

`COc1ccc(C[C@@H]2Cc3cc(OC)c(OC)cc3CN2C)cc1`: the TGI in experiment [1], in experiment [2], in experiment [3], in [4], in experiment [5] and in experiment [6] was > 100 µM each time. Also, the TGI in [7], in [8], in [9], in experiment [10], in experiment [11] and in experiment [12] was > 100 µM each time. For the same compound, the TGI in experiment [13] and in [14] was > 100 µM in each case.
Regarding `O=C1CCCCC1CN1CCCC1` (stereo unspecified), the TGI in [1] is > 100 µM; in [15], > 100 µM; in experiment [3], > 100 µM; in experiment [4], > 100 µM; in experiment [5], > 100 µM; in experiment [6], 0.521 µM. For the same compound, the TGI in experiment [7], in [8], in experiment [9], in [16], in [11] and in experiment [12] was > 100 µM in each case. The TGI in [13] and in experiment [14] was > 100 µM in each case.
Take `COc1cccc(-c2cc(=O)c3cc(OC)c(OC)cc3[nH]2)c1`: the TGI in experiment [1] was > 100 µM; in experiment [15] it was > 100 µM; in experiment [3], > 100 µM; in [4], > 100 µM; in [5], > 100 µM; in experiment [6], 42.4 µM. Besides, the TGI was 77.3 µM in experiment [17]; > 100 µM in experiment [8]; > 100 µM in experiment [16]; > 100 µM in experiment [10]; > 100 µM in experiment [11]; > 100 µM in experiment [12]. Moreover, the TGI in [13] and in [14] was > 100 µM each time.
Take `OC12c3ccccc3C1(N1CCOCC1)CCCCC21OCCCO1` (stereo unspecified): the TGI in experiment [1], in [2], in experiment [15], in experiment [4], in experiment [5] and in experiment [6] was > 100 µM throughout. The TGI in experiment [7], in experiment [17], in experiment [8], in [9], in experiment [16] and in experiment [10] was > 100 µM each time. Besides, the TGI in experiment [11], in experiment [13] and in experiment [14] was > 100 µM in each case.
On to `C/C(=N\NS(=O)(=O)c1ccc(C)cc1)C(CN1CCOCC1)C(c1ccccc1)c1c(O)c2ccccc2oc1=O` (stereo unspecified), for which the TGI in experiment [1], in [2], in experiment [15], in experiment [4], in [5] and in experiment [6] was > 100 µM in each case. The TGI in experiment [7], in experiment [17], in [9], in [16], in experiment [10] and in [11] was > 100 µM in each case. Further, the TGI in experiment [12], in [13] and in [14] was > 100 µM each time.
As to `N#Cc1c2ccc([N+](=O)[O-])cc2c(=O)n2c1sc1ccc(C(F)(F)F)cc12`, the TGI in experiment [1], in [2], in experiment [15], in experiment [4], in [5] and in [6] was > 100 µM in each case. Further, the TGI in experiment [7], in [17], in experiment [8], in experiment [9], in experiment [16] and in [10] was > 100 µM in each case. Also, the TGI in experiment [11], in experiment [12], in experiment [13] and in [14] was > 100 µM in each case.
On to `Cc1nc2c(n1CCO)C(=O)c1ccccc1C2=O`, for which the TGI in experiment [1] is > 100 µM; in [15], 41.9 µM; in experiment [3] it was > 100 µM; in experiment [4], 74.4 µM; in [5], > 100 µM; in [6] it was 27.6 µM. Moreover, the TGI is 88.9 µM in experiment [17]; > 100 µM in [8]; 23.4 µM in experiment [9]; > 100 µM in experiment [16]; > 100 µM in experiment [10]; > 100 µM in experiment [11]. Moreover, the values for the TGI in experiment [12], in experiment [13] and in experiment [14] were > 100 µM, > 100 µM and 34 µM, respectively.
With `CN(C)c1ccc(-c2cc(=O)c3cc4c(cc3[nH]2)OCO4)cc1`, the TGI in experiment [1], in [15], in [3], in [4], in experiment [5] and in experiment [17] was > 100 µM each time. Besides, the TGI in experiment [8], in experiment [9], in [10], in [11], in experiment [12] and in experiment [13] was > 100 µM in each case. In addition, in experiment [14], the TGI was > 100 µM.

These data come from PubChem BioAssay (NCI).
